From US20170028016A1, “METHODS OF TREATMENT OF C. DIFFICILE SPORES WITH RAMOPLANIN” (Nanotherapeutics, Inc., priority 2014, published 2017)
“Also recorded” adds a separate entry of the source.

Columns and labels:
[1] = system: C. difficile spores (ribotype 027); experiment: Dose-dependent sporicidal assay: spores exposed to ramoplanin, washed 6 times, plated on NaTBA; type: cell-based, Clostridium difficile
Method: C. difficile exposure at three levels of ramoplanin (2, 300, 600 μg/mL) and to water was evaluated. […] The wash supernatant fluids (n=6/level) and the final spore suspensions (n=1/level) were counted by plating three 10-fold serial dilutions on NaTaurocholate Blood Agar (NaTBA). Each set of three counts were averaged and compared by t-test.

[2] = system: C. difficile spores (ribotype 027); experiment: Longevity / persistence assay: 30 min ramoplanin exposure, six washes, storage in water to day 28, spore counts; type: cell-based, Clostridium difficile; settings: for spore growth when plated undiluted: to day 28
Method: As above, C. difficile (027) was exposed to multiple doses of Ramoplanin (30 min/37 C) and to water, stored at 37 C (anaerobic), and sampled at days D0, D1 D7, D14, and D28. […] From each level at each time, three aliquots were taken (i.e. n=3 for each subsequent assay) and each washed 6 times before the spore resuspension. Each wash (100 only) and spore suspension (100, 10-1 10-2) were counted on NaTBA.

[3] = system: C. difficile spores (ribotype 027), exosporium; experiment: Dependency of activity on exosporium: intact versus stripped (processed) spores exposed to ramoplanin; type: cell-based, Clostridium difficile
Method: C. difficile (027) exposure (30 min/37 C) to multiple doses of ramoplanin and to water was evaluated. Following ramoplanin exposure for 30 minutes, sampling occurred at days D0, D1, D7, D14, and D28. Without wishing to be bound by any particular theory, sampling over time may characterize the duration of effect having clinical implication on the duration of oral therapy. From each level at each time point, three aliquots were taken (i.e. n=3 for each subsequent assay) and each washed 6 times before the spore re-suspension. Each wash (100 only) and spore suspension (100, 10-1 10-2) were counted on NaTBA and assayed for ramoplanin by a zone of inhibition assay using S. salivarius.
From this example, it appears that the absence of a spore exosporium diminishes the bactericidal effect of Ramoplanin. Following enzyme digest and sonication of spore prep (Cortes et. al.) to removal the exosporium, the spores were exposed (027) to single dose of Ramoplanin (600 mcg/mL) vs water for 30 min and sampled (supernatant and prep) at 1 time point (T0).
Spore exosporia were removed as described by Escobar-Cortes et al. 2013. Proteases and sonication specifically remove the exosporium layer of spores of C. difficile strain 630. […] Briefly, spores were washed four times by centrifugation (10 minutes at 10,000×g) and resuspended in deionized water followed by final resuspension in 15 mL of PBS and sonicated for 90 seconds. Three mL of 10% Sarkosyl (detergent) were added to each preparation and subsequently incubated 15 minutes at room temperature with rocking. Preparations were then centrifuged for 10 minutes at 10,000×g, and pellets were resuspended in 10 mL PBS with 0.1 mL of 1M Tris and 10 mg of lysozyme. Spores were rocked overnight at 37±2° C. and then sonicated for 90 seconds, passed through a 50% solution of sucrose using a swinging bucket rotor for 20 minutes at 4,000×g, and resuspended in a solution containing 3 mL PBS, 200 mM EDTA, 300 ng/mL Proteinase K and 1% Sarkosyl. The spores were further rocked at room temperature for 20 minutes and were passed through a 50% solution of sucrose as previously described by Sabja et al, Id. Next, the spores were washed in deionized water by two centrifugation steps for 10 minutes at 10,000×g and resuspended in deionized water; plating and incubation were carried out as described in the foregoing text.
Adherence of ramoplanin to C. difficile exosporium: In order to determine whether the exosporium was essential to the observed growth-inhibiting effects of ramoplanin, the exosporia were processed as described in Escobar-Cortes et al, 2013, resulting in spores with “stripped” exosporia, and then compared to unprocessed spores (with “intact” exosporia) under three separate conditions (all ramoplanin concentrations were 300 μg/mL): (1) ramoplanin exposure with no subsequent spore processing (i.e., “intact”), (2) ramoplanin exposure with subsequent spore processing (i.e., “stripped”), and (3) water exposure with subsequent spore processing (FIG. 6). […] After ramoplanin exposure, the difference in spore counts between samples that were not processed (with presumed intact exposporia) and samples that were processed (without presumed exposporia) was significant (p<0.0001). No difference in spore count was noted when comparing processed spores that had been exposed to ramoplanin to spores exposed only to water (p=0.389).

[4] = system: C. difficile spores (ribotype 027); experiment: Antimicrobial survey: continuous exposure of spores in water for six days, spore counts by plating; settings: 37 °C, D0-D6

## ramoplanin
[1]; multiple washes (×6)
  persistence of bactericidal effect after washes: effect persists after multiple washes
[1]; no apparent difference in effect vs. time
  exposure time giving maximal effect: 30 min
[1]; ramoplanin 300 μg/mL (below fecal level), ribotype 027
  viability of ramoplanin-exposed spores when plated: non-viable
[2]; 30 min/37 C exposure, 6 washes, stored at 37 C anaerobic
  organism recovery from 30 min after exposure and wash through day 28: no organisms are recoverable
[2]; ramoplanin 2 μg/mL, 30 min exposure, over 28 days
  inhibition of spore growth relative to controls: no inhibition relative to controls
[2]; ramoplanin 2 μg/mL, 30 min exposure, six washes
  mean spore counts ±SEM over 28 days: 2.3×10^4±4.6×10^2
[2]; ramoplanin 300 μg/mL and 600 μg/mL, 30 min exposure
  spore counts after diluting samples 10×: growth not measurable at previous dilution; also recorded: spore counts similar to the 0 and 2 μg/mL exposed spores
[2]; ramoplanin 300 μg/mL, 30 min exposure, six washes
  spore growth when plated undiluted: no counts; also recorded: no growth
[2]; ramoplanin 600 μg/mL, 30 min exposure, six washes
  spore growth when plated undiluted: no counts; also recorded: no growth
[3]; after multiple washes
  growth-inhibitory effect when exosporia were removed before or after exposure: not present
[3]; ramoplanin 300 μg/mL, exosporia removed after exposure
  spore counts, spores processed after exposure (stripped exosporia): counts equivalent to water exposure
[3]; ramoplanin 300 μg/mL, no subsequent spore processing
  spore growth, unprocessed spores (intact exosporia): no measurable counts; also recorded: no growth
[3]; ramoplanin 600 μg/mL, 30 min
  C. difficile recovery, spores stripped of the exosporium: high organism recovery
  C. difficile recovery, spores with intact exosporium: non-recoverable C. difficile
[4]; ramoplanin 300 μg/mL
  spore counts on continuous exposure: no counts; also recorded: no growth

## CN[C@H](CC(C)C)C(=O)N[C@H]1C(=O)N[C@@H](CC(N)=O)C(=O)N[C@H]2C(=O)N[C@H]3C(=O)N[C@H](C(=O)N[C@H](C(=O)O)c4cc(O)cc(O)c4-c4cc3ccc4O)[C@H](O)c3ccc(c(Cl)c3)Oc3cc2cc(c3O[C@@H]2O[C@H](CO)[C@@H](O)[C@H](O)[C@H]2O[C@H]2C[C@](C)(N)[C@H](O)[C@H](C)O2)Oc2ccc(cc2Cl)[C@H]1O [vancomycin]
[4]; vancomycin 500 μg/mL
  spore counts on continuous exposure, compared to baseline: did not significantly reduce spore counts

## Cc1ncc([N+](=O)[O-])n1CCO [metronidazole]
[4]; metronidazole 10 μg/mL
  spore counts on continuous exposure, compared to baseline: did not significantly reduce spore counts
